Results as given in US20240335431A1, “1-H-PYRROLO[2,3-c]PYRIDINE COMPOUNDS” (Acerta Pharma B.V., priority 2023, published 2024).
pIC50: −log10 of the molar value.

Experiments:
[1] = biological target: Menin protein (Homo sapiens, UniProt O00255, DEL460-519); assay: Menin/MLL fluorescence polarization (FP) assay; assay type: binding; conditions: Menin 2 nM, cRho110-Ahx-MBM1/MBM2 peptide 1 nM
Protocol: Compounds were tested in a biochemical binding assay using Menin protein at 2 nM (N6his-tev-Menin_4i80, PB-20-1459) and the substrate cRho110-Ahx-MBM1/MBM2 peptide (UbiQ, UbiQ-Q20201030; cRh110-Ahx-[…]-QRVPALLLPPG-NH2) at 1 nM.
384 Low volume black plates (Corning #4514) were used. 5 μL/well compound or 3% DMSO was added at 10-fold serial dilutions in DMSO from 10 μM. 5 μL/well cRho110-Ahx-MBM1/MBM2 peptide or binding buffer (50 mM Tris pH 7.5, 50 mM NaCl, 1 mM TCEP, 0.01% BGG, 0.01% Brij-35) was added to all wells. 5 μL/well Menin protein or binding buffer (50 mM Tris pH 7.5, 50 mM NaCl, 1 mM TCEP, 0.01% BGG, 0.01% Brij-35) was added to all wells. Plates were read on an EnVision plate reader (Perkin Elmer) with excitation at 480 nm and emission at 535 nm P+S, and measured every 5 minutes for 180 minutes.
Data were analyzed in Genedata Screener®. IC50 values were determined by plotting % inhibition versus log compound concentration and using a one site dose response model. Raw data signals were normalized using 1% DMSO no Menin as 100% inhibitor control and 1% DMSO with Menin and no inhibitor as 0% inhibitor control.

[2] = tested on: MOLM-13 cells; assay: Proliferation assay, MOLM-13 (CellTiter-Glo, 7 days); assay type: cell-based, human
Outline: (§1)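 Cells seeded at 125 (MOLM-13), 300 (MV4;11), 75 (OCI-AML3) or 200 (HEL) per well were exposed to 3.16-fold compound dilutions (0.1% DMSO) for 7 days at 37° C. Viability by CellTiter-Glo luminescence, normalized to DMSO (100%) and day-0 plate (0%); IC50 from one-site dose-response fit.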

[3] = tested on: HEL cells; assay: Proliferation assay, HEL control cell line (CellTiter-Glo, 7 days); assay type: cell-based, human
Outline: as §1

[4] = Human liver microsomes (HLMs) intrinsic clearance assay; assay type: in vitro ADME
[5] = Human hepatocyte intrinsic clearance assay; assay type: in vitro ADME; conditions: human hepatocytes
Protocol: Human hepatocytes (LiverPool™ 10-Donor Human hepatocytes (Mixed Gender, PEG-free, Product No. S01205, 5 million cells per vial) were obtained from BioreclamationIVT. DMSO was sourced from Solarbio S&T Co Ltd. Leibovitz's L-15 Medium, Williams' Medium E, GlutaMAX™-1 (100×), HEPES, DPBS (10×) and Human Recombinant Insulin Solution were purchased from Gibco. Isotonic Percoll Solution was purchased from GE Healthcare. Fetal Bovine Serum (FBS) was purchased from Corning.
10 mM dexamethasone stock solution was prepared by dissolving 3.9 mg dexamethasone in 1 mL of DMSO. An Isotonic Percoll Solution was prepared by dilution of Percoll with DPBS (10×). 15 mL of Isotonic Percoll Solution (90% Percoll/10% DPBS) was added to 31.25 mL William's E medium containing 500 mL of GlutaMAX™-1 (100×), 750 mL of 1M HEPES, 2.5 mL of 5% FBS, 50 mL of 4 mg/mL Human Recombinant Insulin Solution and 5 mL of the 10 mM dexamethasone stock.
2 mL of 10 mM DMSO stock solutions of test compound were added to 198 mL acetonitrile to produce 100 mmol/L concentration.
The human hepatocyte vial was thawed at 37° C. in a waterbath. Once thawed, contents were poured into a 50 mL conical tube and centrifuged at 100 g for 10 minutes. The thawing medium was poured out and 4 mL L-15 medium was added. The tube was gently shaken to resuspend the hepatocytes and cells were counted with an appropriate cell counter. 247.5 mL of the hepatocyte suspension was transferred into each well of the plate and pre-warmed at 600 rpm and 50° C. to enable the temperature to rise to 37° C.
2.5 mL of the […] test compound solution was added to initiate the reaction (final concentration […]) and incubated at 37° C. with shaking at 900 rpm. At 0.5, 5, 15, 30, 45, 60, 80, 100 and 120 minutes, 20 mL was taken into a quenching solution of acetonitrile containing internal standards. The mix was vortexed at 800 rpm for 2 minutes followed by centrifugation for 20 minutes at 4000 rpm at 4° C. 40 mL of supernatant was transferred into a 96 well analysis plate containing 160 mL of water in each well. The analysis plate was shaken at 100 rpm for 2 minutes prior to analysis by LC-MS/MS.
Peak areas were determined from extracted ion chromatograms. Percent parent remaining was calculated from peak area of test compound. The slope value, k, was determined by linear regression of the natural logarithm of percent parent remaining versus incubation time.
The in vitro intrinsic clearance (in vitro CLint in mL/min/10^6 cells) was determined from the slope value using the following equation: […]
where V is the incubation volume (0.25 mL) and N is the number of hepatocytes per well (0.25×10^6 cells).

[6] = tested on: MV4;11 cells; assay: Proliferation assay, MV4;11 (CellTiter-Glo, 7 days); assay type: cell-based, human; conditions: read-out: MV-4-11 IC50
Protocol: (§2) The anti-proliferative effect of compounds was tested in human leukaemia cell lines. The cell lines […] and MV4; 11 each harbor an MLL translocation expressing the MLL fusion proteins MLL-AF9 and MLL-AF4, respectively. Each also express the wildtype protein from the second allele. OCI-AML3 cells carrying the NPM1c gene mutation were also tested.
(§3) MOLM-13 and HEL cells were cultured in RPMI 1640 (Gibco) supplemented with 10% FBS (Gibco) and 1% Pen/Strep (Gibco). MV4; 11 cells were cultured in IMDM (Gibco) supplemented with 10% FBS (Gibco) and 1% Pen/Strep (Gibco). OCI-AML3 cells were cultured in MEMa (Gibco) supplemented with 20% FBS (Gibco) and 1% Pen/Strep (Gibco).
(§4) To assess proliferative effects, 125 MOLM-13 cells, 300 MV4; 11 cells, 75 OCI-AML3 cells, and 200 HEL cells were seeded in 40 μL media per well in 384-well ViewPlates (Perkin Elmer, 6007480). Cell seeding numbers were chosen based on growth curves to ensure linear growth throughout the experiments. Test compounds were added at 3.16-fold serial dilutions in DMSO from […] and DMSO content was normalized to 0.1%. Cells were incubated for 7 days at 37° C. and 5% CO2. A day 0 plate was seeded for each cell line and used as a standard control.
(§5) To measure cell viability, CellTiter-Glo 2.0 (Promega, G9242) luminescent growth indicator was used. 10 μL CellTiter-Glo reagent was added per well. Plates were placed on a plate shaker for 2 minutes in the dark and left to incubate off the shaker for another 8 minutes in the dark, for a total of 10 minutes. Plates were read using an EnVision plate reader (Perkin Elmer) using the Luminescence aperture and a measurement time of 0.1 second.
(§6) Data were analyzed in Genedata Screener®. IC50 values were determined by plotting % inhibition versus log compound concentration and using a one site dose response model. Raw data signals were normalized using 0.1% DMSO media only as background control, 0.1% DMSO with cells no compound as 100% viability (maximum signal), and day 0 0.1% DM with cells no compound as 0% viability (minimum signal).

[7] = tested on: OCI-AML3 cells; assay: Proliferation assay, OCI-AML3 (CellTiter-Glo, 7 days); assay type: cell-based, human
Protocol: as §2, §3, §4, §5, §6

[8] = tested on: MOLM-13 cells; assay: Cell death in MOLM-13 cell line, Compound 56-2 with BCL2 inhibitor venetoclax (CellTiter-Glo, 4 days); assay type: cell-based, human
Protocol: Test compound was dispensed using a Tecan compound dispenser into 384-well plates (Microplate 384-well, polypropylene, F-bottom; Greiner Bio-One, #781201) in a ten-by-ten response matrix to assess the combination effects of Menin inhibition (Compound 56-2) together with BCL-2 inhibition (venetoclax) at the following concentrations after subsequent cell seeding in 40 μL of growth media: 10 μM, 3.16 μM, 1 μM, 0.316 μM, 0.1 μM, 0.0316 μM, 0.01 μM, 0.00316 μM, […], and vehicle (DMSO; Sigma-Aldrich, D2650). Cells were seeded at 1000 cells per well and incubated at 37° C. and 5% CO2. MOLM-13 cells were grown in RPM1 1640 (Gibco, #21875091) supplemented with 10% FBS (Gibco; #10091-148) and 1% Pen/Strep (Gibco; #15140-122). After 4 days of compound treatment, plates were placed at room temperature for 15 minutes. 10 μL CellTiter-Glo reagent (Promega, #G9242) was added to the cells and incubated for 10 minutes in the dark on a plate shaker at room temperature. A backseal (Perkin Elmer; #6005199) was added to the plates and luminescence was measured at 0.1 sec/well in an Envision (Perkin Elmer). Data were normalized for each plate so that the average of control wells (DMSO) was set to 0%, and the maximum observed value across the plate was set as 100%. Data fitting was performed using Graphpad Prism and combination effect was assessed using SynergyFinder.

Menin protein, sequence (O00255 with tags, fused parts or gaps DEL460-519): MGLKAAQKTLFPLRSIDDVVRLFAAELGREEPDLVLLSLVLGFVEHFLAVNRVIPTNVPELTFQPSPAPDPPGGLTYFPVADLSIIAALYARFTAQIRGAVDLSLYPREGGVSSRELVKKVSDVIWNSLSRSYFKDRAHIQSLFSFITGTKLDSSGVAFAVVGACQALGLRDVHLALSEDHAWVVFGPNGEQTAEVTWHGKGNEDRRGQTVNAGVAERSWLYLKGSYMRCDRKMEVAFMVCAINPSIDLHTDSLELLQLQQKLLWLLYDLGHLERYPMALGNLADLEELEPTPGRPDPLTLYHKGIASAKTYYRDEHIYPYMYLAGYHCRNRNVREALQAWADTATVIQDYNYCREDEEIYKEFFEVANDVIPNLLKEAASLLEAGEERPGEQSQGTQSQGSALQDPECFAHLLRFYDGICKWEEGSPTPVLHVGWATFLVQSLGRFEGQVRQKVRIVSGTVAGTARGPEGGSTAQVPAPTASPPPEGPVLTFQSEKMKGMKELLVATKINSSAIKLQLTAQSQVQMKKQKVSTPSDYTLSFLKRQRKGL

SMILES | pIC50 [1] | pIC50 [2] | pIC50 [3] | HLM CLint ([4]; 1 mg/mL HLM, NADPH) | HH CLint [5] | pIC50 [6] | pIC50 [7] | HLM CLint ([4]; human, microsomes, 1 µM, pH 7.4) | cell viability as monotherapy (in words) [8]
CCN(C(=O)c1cc(F)ccc1-n1c(C)c(C(=O)[C@@H]2CCN(C(=O)[C@@H]3CCC4(CC4)N3)[C@@H](C)C2)c2ccncc21)C(C)C (single isomer, unassigned) [Example 52-3, N-Ethyl-5-fluoro-N-isopropyl-2-(2-methyl-3-((2R*,4S*)-2-methyl-1-((S)-4-azaspiro[2.4]heptane-5-carbonyl)piperidine-4-carbonyl)-1H-pyrrolo[2,3-c]pyridin-1-yl)benzamide] | 5.23 | 5.83 | < 5.00 | 210 µL/min/mg | 5.7 μl/min/1E6 | – | – | – | –
CCN(C(=O)c1cc(F)ccc1-n1c(C)c(C(=O)[C@@H]2CCN(C(=O)[C@@H]3CCC4(CC4)N3)[C@@H](C)C2)c2ccncc21)C(C)C (single isomer, unassigned) [Example 52-4, N-Ethyl-5-fluoro-N-isopropyl-2-(2-methyl-3-((2R*,4S*)-2-methyl-1-((S)-4-azaspiro[2.4]heptane-5-carbonyl)piperidine-4-carbonyl)-1H-pyrrolo[2,3-c]pyridin-1-yl)benzamide] | 5.61 | 5.96 | < 5.00 | >300 µL/min/mg | 7.9 μl/min/1E6 | – | – | – | –
Cc1c(C(=O)[C@@H]2CCN(C(=O)[C@H]3NC[C@@H]4C[C@@H]43)[C@@H](C)C2)c2ccncc2n1-c1ccc(F)cc1C(=O)N(CC(F)(F)F)C(C)C (single isomer, unassigned) [Example 53-4, 2-(3-((2R*,4S*)-1-((1S,2S,5R)-3-Azabicyclo[3.1.0]hexane-2-carbonyl)-2-methylpiperidine-4-carbonyl)-2-methyl-1H-pyrrolo[2,3-c]pyridin-1-yl)-5-fluoro-N-isopropyl-N-(2,2,2-trifluoroethyl)benzamide] | 7.32 | 7.15 | < 5.00 | – | – | 7.28 | 6.93 | 89 µL/min/mg | –
CC1(C)CCC(CN2CCN(c3ccc(C(=O)NS(=O)(=O)c4ccc(NCC5CCOCC5)c([N+](=O)[O-])c4)c(Oc4cnc5[nH]ccc5c4)c3)CC2)=C(c2ccc(Cl)cc2)C1 [venetoclax, reference compound] | – | – | – | – | – | – | – | – | cell viability loss was induced
